According to ChEMBL document CHEMBL2331095, “Synthesis and biological activity of 5-chloro-N⁴-substituted phenyl-9H-pyrimido[4,5-b]indole-2,4-diamines as vascular endothelial growth factor receptor-2 inhibitors and antiangiogenic agents” (Bioorg Med Chem, 2013):

Key:
[1] = target: T1, Epidermal growth factor receptor (Homo sapiens, UniProt P00533); type: cell-based, A-431;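 further: human A431 cells pretreated 60 min before EGF stimulation, EGF-induced tyrosine phosphorylation read by ELISA after 10 min of activation, lower signal meaning inhibition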
T1 sequence (P00533 whole entry): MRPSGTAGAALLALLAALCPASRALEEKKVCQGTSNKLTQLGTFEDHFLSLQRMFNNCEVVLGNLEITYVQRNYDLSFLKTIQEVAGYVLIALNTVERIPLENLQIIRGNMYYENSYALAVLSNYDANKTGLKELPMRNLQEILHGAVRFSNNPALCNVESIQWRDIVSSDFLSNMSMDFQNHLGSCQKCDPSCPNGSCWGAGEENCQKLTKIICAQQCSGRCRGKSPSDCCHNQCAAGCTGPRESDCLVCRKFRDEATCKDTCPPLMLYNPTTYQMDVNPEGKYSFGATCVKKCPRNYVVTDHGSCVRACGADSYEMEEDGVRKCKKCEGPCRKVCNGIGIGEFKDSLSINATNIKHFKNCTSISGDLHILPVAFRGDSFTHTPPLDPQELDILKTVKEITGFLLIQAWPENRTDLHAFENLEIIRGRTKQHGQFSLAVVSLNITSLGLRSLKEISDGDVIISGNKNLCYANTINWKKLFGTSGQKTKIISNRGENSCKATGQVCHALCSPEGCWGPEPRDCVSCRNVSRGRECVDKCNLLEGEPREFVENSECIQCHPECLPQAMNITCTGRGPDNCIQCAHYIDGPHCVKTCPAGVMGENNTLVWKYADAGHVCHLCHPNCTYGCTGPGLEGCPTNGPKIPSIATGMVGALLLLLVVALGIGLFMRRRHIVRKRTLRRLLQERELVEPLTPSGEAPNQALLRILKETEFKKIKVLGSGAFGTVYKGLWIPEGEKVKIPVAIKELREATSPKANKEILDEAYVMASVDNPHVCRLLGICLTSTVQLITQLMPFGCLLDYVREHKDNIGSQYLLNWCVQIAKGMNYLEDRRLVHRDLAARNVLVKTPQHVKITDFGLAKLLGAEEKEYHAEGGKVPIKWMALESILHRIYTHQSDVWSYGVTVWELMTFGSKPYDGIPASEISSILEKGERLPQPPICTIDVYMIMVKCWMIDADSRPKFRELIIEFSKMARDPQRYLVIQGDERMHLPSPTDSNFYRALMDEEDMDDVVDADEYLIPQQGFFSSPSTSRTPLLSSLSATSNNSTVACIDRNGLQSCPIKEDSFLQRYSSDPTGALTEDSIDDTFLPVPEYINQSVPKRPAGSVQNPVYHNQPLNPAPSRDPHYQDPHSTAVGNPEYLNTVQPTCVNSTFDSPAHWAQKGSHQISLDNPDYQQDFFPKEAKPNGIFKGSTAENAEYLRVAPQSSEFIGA

[2] = target: Vascular endothelial growth factor receptor 2 (Homo sapiens, UniProt P35968); type: cell-based, U-251;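 further: human U251 cells, compound preincubated 60 min before VEGF stimulation, VEGF-induced VEGFR2 tyrosine phosphorylation measured by ELISA after 10 min, value is concentration inhibiting this phosphorylation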
Chain of Vascular endothelial growth factor receptor 2 (P35968 whole entry): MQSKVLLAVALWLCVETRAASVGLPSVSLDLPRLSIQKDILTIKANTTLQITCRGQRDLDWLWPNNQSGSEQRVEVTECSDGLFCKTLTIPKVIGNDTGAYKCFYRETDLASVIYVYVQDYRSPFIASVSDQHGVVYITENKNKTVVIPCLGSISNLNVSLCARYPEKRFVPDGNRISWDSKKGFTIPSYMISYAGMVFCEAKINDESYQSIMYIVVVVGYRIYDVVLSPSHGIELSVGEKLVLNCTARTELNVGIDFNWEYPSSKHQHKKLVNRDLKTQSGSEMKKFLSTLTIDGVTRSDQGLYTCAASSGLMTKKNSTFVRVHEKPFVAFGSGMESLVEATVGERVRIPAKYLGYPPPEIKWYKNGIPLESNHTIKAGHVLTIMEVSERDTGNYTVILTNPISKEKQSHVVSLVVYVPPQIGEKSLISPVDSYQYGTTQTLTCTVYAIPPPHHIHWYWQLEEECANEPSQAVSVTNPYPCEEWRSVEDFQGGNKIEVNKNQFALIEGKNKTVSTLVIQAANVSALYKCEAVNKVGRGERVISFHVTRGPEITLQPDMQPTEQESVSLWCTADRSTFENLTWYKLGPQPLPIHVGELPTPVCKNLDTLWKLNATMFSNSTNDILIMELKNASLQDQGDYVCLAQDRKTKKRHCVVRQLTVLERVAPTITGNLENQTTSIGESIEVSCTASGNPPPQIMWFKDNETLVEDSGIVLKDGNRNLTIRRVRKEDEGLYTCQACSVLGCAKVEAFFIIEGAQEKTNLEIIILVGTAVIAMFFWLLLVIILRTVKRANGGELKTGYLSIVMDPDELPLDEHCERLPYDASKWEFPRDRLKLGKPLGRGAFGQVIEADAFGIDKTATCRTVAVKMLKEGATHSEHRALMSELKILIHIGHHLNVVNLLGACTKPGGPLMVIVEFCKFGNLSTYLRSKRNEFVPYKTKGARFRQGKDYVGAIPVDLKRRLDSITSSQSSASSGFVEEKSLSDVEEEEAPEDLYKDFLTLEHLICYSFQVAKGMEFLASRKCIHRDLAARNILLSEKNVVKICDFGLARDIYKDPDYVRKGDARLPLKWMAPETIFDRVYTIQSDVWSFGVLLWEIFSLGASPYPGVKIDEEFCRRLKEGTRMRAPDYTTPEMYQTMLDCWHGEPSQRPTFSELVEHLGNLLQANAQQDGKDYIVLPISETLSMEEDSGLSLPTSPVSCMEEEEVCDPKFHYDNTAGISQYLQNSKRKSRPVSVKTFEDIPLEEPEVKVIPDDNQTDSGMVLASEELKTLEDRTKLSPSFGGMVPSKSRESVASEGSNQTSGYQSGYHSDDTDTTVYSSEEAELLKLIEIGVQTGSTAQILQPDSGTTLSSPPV

[3] = target: Platelet-derived growth factor receptor beta (Homo sapiens, UniProt P09619); assay: Inhibition of PDGFRbeta in human SF539 cells assessed as inhibition of […] tyrosine phosphorylation incubated for 60 mins prior to PDGF-BB-activation measured 10 mins by ELISA
Chain of Platelet-derived growth factor receptor beta (P09619 whole entry): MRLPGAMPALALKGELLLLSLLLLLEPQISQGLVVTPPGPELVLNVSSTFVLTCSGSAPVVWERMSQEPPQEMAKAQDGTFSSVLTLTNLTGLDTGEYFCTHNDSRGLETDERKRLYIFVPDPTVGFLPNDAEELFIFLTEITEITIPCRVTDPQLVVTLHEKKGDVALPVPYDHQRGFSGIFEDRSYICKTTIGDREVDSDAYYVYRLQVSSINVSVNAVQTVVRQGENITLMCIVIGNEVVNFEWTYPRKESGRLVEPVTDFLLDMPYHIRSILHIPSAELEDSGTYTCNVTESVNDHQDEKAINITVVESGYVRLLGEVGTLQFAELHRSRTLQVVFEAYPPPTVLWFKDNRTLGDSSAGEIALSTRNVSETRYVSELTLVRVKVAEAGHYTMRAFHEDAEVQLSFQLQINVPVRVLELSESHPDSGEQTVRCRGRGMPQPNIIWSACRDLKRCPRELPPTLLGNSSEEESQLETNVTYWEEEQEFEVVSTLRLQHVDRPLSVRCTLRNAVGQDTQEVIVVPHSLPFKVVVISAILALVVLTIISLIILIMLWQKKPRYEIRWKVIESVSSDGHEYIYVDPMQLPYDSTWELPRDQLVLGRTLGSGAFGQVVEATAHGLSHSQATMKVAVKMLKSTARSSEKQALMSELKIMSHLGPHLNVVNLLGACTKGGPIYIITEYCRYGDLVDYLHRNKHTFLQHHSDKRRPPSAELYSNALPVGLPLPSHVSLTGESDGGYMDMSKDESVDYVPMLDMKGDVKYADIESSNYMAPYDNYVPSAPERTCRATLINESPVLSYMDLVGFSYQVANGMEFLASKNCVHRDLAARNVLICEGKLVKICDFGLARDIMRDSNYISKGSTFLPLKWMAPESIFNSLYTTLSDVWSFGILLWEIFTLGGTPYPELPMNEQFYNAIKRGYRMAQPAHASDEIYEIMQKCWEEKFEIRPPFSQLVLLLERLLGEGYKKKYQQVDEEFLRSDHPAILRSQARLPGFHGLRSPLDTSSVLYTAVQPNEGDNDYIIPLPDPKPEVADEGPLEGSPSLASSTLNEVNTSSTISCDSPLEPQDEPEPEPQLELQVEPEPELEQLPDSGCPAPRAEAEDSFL

A-431 = assay: Cytotoxicity against human A431 cells incubated for 12 hrs followed by compound wash out measured 36 hrs by CYQUANT assay; type: functional, cell-based
[4] = target: T1, Epidermal growth factor receptor; assay: Ratio of sunitinib IC50 to compound IC50 for EGFR in human A431 cells; type: cell-based; settings: A-431

Question: With `Nc1nc(Nc2cccc(F)c2)c2c(n1)[nH]c1cccc(Cl)c12` as the compound, how does the IC50 [1] read?
Answer: > 200 µM

Question: What about the IC50 [2] of the same compound?
Answer: 86.1 µM

Question: What about the IC50 [3] of the same compound?
Answer: 172 µM

Question: Which IC50 (A-431) does the source give for `CC(C)c1ccc(Nc2nc(NC(=O)C(C)(C)C)nc3[nH]c4cccc(Cl)c4c23)cc1` here?
Answer: > 250 µM

Question: What about the IC50 [1] of the same compound?
Answer: 39.2 µM

Question: What about the IC50 [2] of the same compound?
Answer: 47.8 µM

Question: And the IC50 [3]?
Answer: > 200 µM

Question: Which results are given for `CC(C)(C)C(=O)Nc1nc(Nc2ccccc2)c2c(n1)[nH]c1cccc(Cl)c12`?
Answer: IC50 [1]: 115 µM; IC50 [2]: 192 µM; IC50 [3]: 70.6 µM

Question: What does the source list for `Nc1nc(Nc2ccc(Cl)cc2)c2c(n1)[nH]c1cccc(Cl)c12`?
Answer: IC50 [1]: 63.6 µM; IC50 [2]: 13.2 µM; IC50 [3]: 196 µM

Question: `CC(C)(C)C(=O)Nc1nc(Nc2ccc(Cl)cc2F)c2c(n1)[nH]c1cccc(Cl)c12` was tested. Which IC50 (A-431) did it give?
Answer: > 250 µM

Question: And the IC50 [1]?
Answer: > 200 µM

Question: What about the IC50 [2] of the same compound?
Answer: 89.1 µM

Question: What about the IC50 [3] of the same compound?
Answer: 171 µM

Question: For `CC(C)(C)C(=O)Nc1nc(Nc2cccc(F)c2)c2c(n1)[nH]c1cccc(Cl)c12`, which Ratio IC50 [4] is on record?
Answer: 5.5

Question: What about the IC50 (A-431) of the same compound?
Answer: > 250 µM

Question: What about the IC50 [1] of the same compound?
Answer: 30.8 µM

Question: And the IC50 [2]?
Answer: 31.2 µM

Question: What about the IC50 [3] of the same compound?
Answer: > 200 µM

Question: What does the source list for `Nc1nc(Nc2ccccc2)c2c(n1)[nH]c1cccc(Cl)c12`?
Answer: IC50 (A-431): 193 µM; IC50 [1]: > 200 µM; IC50 [2]: 124 µM; IC50 [3]: > 200 µM

Question: For `COc1cccc(Nc2nc(NC(=O)C(C)(C)C)nc3[nH]c4cccc(Cl)c4c23)c1`, which IC50 (A-431) is on record?
Answer: > 250 µM

Question: And the IC50 [1]?
Answer: 130 µM

Question: And the IC50 [2]?
Answer: 41 µM

Question: What about the IC50 [3] of the same compound?
Answer: 196 µM

Question: Which IC50 [1] does the source give for `CC(C)(C)C(=O)Nc1nc(Nc2ccc(Cl)cc2)c2c(n1)[nH]c1cccc(Cl)c12` here?
Answer: 58.7 µM

Question: And the IC50 [2]?
Answer: 21.3 µM

Question: What about the IC50 [3] of the same compound?
Answer: > 200 µM

Question: How did the IC50 [3] turn out when `Nc1nc(Nc2ccc(Cl)cc2F)c2c(n1)[nH]c1cccc(Cl)c12` was run?
Answer: > 200 µM

Question: What does the source list for `CC(C)c1ccc(Nc2nc(N)nc3[nH]c4cccc(Cl)c4c23)cc1`?
Answer: IC50 [2]: 30.3 µM; IC50 [3]: > 200 µM

Question: Which Ratio IC50 [4] does the source give for `COc1cccc(Nc2nc(N)nc3[nH]c4cccc(Cl)c4c23)c1` here?
Answer: 2.1

Question: What about the IC50 [1] of the same compound?
Answer: 82.9 µM

Question: And the IC50 [2]?
Answer: 70.1 µM

Question: And the IC50 [3]?
Answer: 50.5 µM
